Test results: the supplement of paper PMC7840683
Counter-ions that a name gives are not always drawn.

Test system: HepaRG
Test: LDH release cytotoxicity, % of total lysis control; higher = more cytotoxic
Conditions: 48 h
In short: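 Single-lot HepaRG cells in collagen I-coated 96-well plates were treated for 48 h in serum-free induction medium containing 0.5% DMSO with test chemicals in eight-point half-log series up to 100 µM. For total lysis, wells received 0.1% Triton X. LDH in 50 µL spent medium was assayed by resorufin fluorescence with CytoTox-ONE. Percent cytotoxicity was normalized to the on-plate vehicle and total lysis controls, with duplicates averaged.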

Oc1cccc2cccnc12 [8-Hydroxyquinoline]
Conditions	LDH release cytotoxicity [%]
0.03162 µM	-1.07
0.1 µM	-1.23
0.3162278 µM	-1.16
1 µM	-1.2
3.16228 µM	-1.01
10 µM	-0.111
31.6228 µM	0.218
100 µM	2.33

CCCCOC(=O)c1ccccc1C(=O)OCCCC [Dibutyl phthalate]
Conditions	LDH release cytotoxicity [%]
0.03162 µM	6.54
0.1 µM	3.46
0.3162278 µM	3.28
1 µM	4.3
3.16228 µM	4.61
10 µM	4.63
31.6228 µM	6.08
100 µM	9.42

Cn1c(=O)c2[nH]cnc2n(C)c1=O [Theophylline]
Conditions	LDH release cytotoxicity [%]
0.03162 µM	-1.27
0.1 µM	-2.1
0.3162278 µM	-1.54
1 µM	-1.74
3.16228 µM	-1.51
10 µM	-1.15
31.6228 µM	-0.719
100 µM	-0.479

CC(C)N1C(=O)c2ccccc2NS1(=O)=O [Bentazone]
Conditions	LDH release cytotoxicity [%]
0.03162 µM	-0.772
0.1 µM	-0.547
0.3162278 µM	0.0696
1 µM	-0.283
3.16228 µM	-0.149
10 µM	0.303
31.6228 µM	-0.174
100 µM	2.45

CCCCC(CC)CN1C(=O)C2C3C=CC(C3)C2C1=O (stereo unspecified) [Octylbicycloheptenedicarboximide]
Conditions	LDH release cytotoxicity [%]
0.03162 µM	0.282
0.1 µM	-0.366
0.3162278 µM	-0.0268
1 µM	-1.18
3.16228 µM	-0.584
10 µM	-0.999
31.6228 µM	-1.23
100 µM	8.34

CCOC1Oc2ccc(OS(C)(=O)=O)cc2C1(C)C (stereo unspecified) [Ethofumesate]
Conditions	LDH release cytotoxicity [%]
0.031623 µM	-1.31
0.1 µM	-1.58
0.316228 µM	-1.7
1 µM	-3.38
3.16228 µM	-2.65
10 µM	-3.76
31.6228 µM	-3.45
100 µM	12.4

OCC1OC2OC3C(CO)OC(OC4C(CO)OC(OC5C(CO)OC(OC6C(CO)OC(OC7C(CO)OC(OC1C(O)C2O)C(O)C7O)C(O)C6O)C(O)C5O)C(O)C4O)C(O)C3O (stereo not drawn) [alpha-Cyclodextrin]
Conditions	LDH release cytotoxicity [%]
0.016602 µM	-2.18
0.0525 µM	-2.3
0.16602 µM	-1.73
0.525 µM	-2.65
1.6602 µM	-2.1
5.25 µM	-1.71
16.601958 µM	-1.44
52.5 µM	0.413

COc1nn(CSP(=S)(OC)OC)c(=O)s1 [Methidathion]
Conditions	LDH release cytotoxicity [%]
0.03162 µM	1.04
0.1 µM	-1.02
0.3162278 µM	-0.883
1 µM	-0.575
3.16228 µM	0.0624
10 µM	1.08
31.6228 µM	0.461
100 µM	1.33

O=S(=O)(O)C(F)(F)C(F)(F)C(F)(F)C(F)(F)C(F)(F)C(F)(F)C(F)(F)C(F)(F)F [Perfluorooctanesulfonic acid]
Conditions	LDH release cytotoxicity [%]
0.03162 µM	-1.36
0.1 µM	-1.86
0.3162278 µM	-1.14
1 µM	-1.91
3.16228 µM	-1.26
10 µM	-2
31.6228 µM	-0.893
100 µM	19.6

Cc1ccc2ncccc2c1 [6-Methylquinoline]
Conditions	LDH release cytotoxicity [%]
0.03162 µM	-1.09
0.1 µM	-1.74
0.3162278 µM	-0.691
1 µM	-0.702
3.16228 µM	1.12
10 µM	3.62
31.6228 µM	6.32
100 µM	12.7

CCCCCOC(C)=O [Pentyl acetate]
Conditions	LDH release cytotoxicity [%]
0.03162 µM	-10.9
0.1 µM	-10.5
0.3162278 µM	-10.2
1 µM	-11
3.16228 µM	-10.3
10 µM	-10.9
31.6228 µM	-10.3
100 µM	-10.02

Cc1ccc(S(=O)(=O)NC(=O)NN2CCCCCC2)cc1 [Tolazamide]
Conditions	LDH release cytotoxicity [%]
0.03162 µM	-1.21
0.1 µM	-1.21
0.3162278 µM	-1.26
1 µM	-1.16
3.16228 µM	-0.648
10 µM	-0.378
31.6228 µM	-0.0919
100 µM	1.58

C1CC2OC2CC1C1CO1 (stereo unspecified) [4-Vinyl-1-cyclohexene dioxide]
Conditions	LDH release cytotoxicity [%]
0.03162 µM	-0.357
0.1 µM	-1.96
0.3162278 µM	-2.19
1 µM	-1.67
3.16228 µM	-1.29
10 µM	-1.43
31.6228 µM	-0.613
100 µM	78.1

CCCCCCCCOC(=O)c1ccccc1C(=O)OCCCCCCCC [Di-n-octyl phthalate]
Conditions	LDH release cytotoxicity [%]
0.03162 µM	-0.293
0.1 µM	-1.33
0.3162278 µM	-0.746
1 µM	-0.29
3.16228 µM	-1.1
10 µM	-0.705
31.6228 µM	-0.176
100 µM	5.1

COP(=S)(OC)Oc1ccc([N+](=O)[O-])cc1 [Methyl parathion]
Conditions	LDH release cytotoxicity [%]
0.03162 µM	-0.787
0.1 µM	-0.971
0.3162278 µM	0.295
1 µM	-1.21
3.16228 µM	-0.845
10 µM	0.053
31.6228 µM	0.525
100 µM	1.01

CCC(C)(CC)c1cc(NC(=O)c2c(OC)cccc2OC)on1 [Isoxaben]
Conditions	LDH release cytotoxicity [%]
0.03162 µM	-2.09
0.1 µM	-2.04
0.3162278 µM	-2.03
1 µM	-2.59
3.16228 µM	-2.88
10 µM	-1.64
31.6228 µM	-1.59
100 µM	11.4

COCC(C)N(C(=O)CCl)c1c(C)csc1C (stereo unspecified) [Dimethenamid]
Conditions	LDH release cytotoxicity [%]
0.031623 µM	-1.73
0.1 µM	-3.31
0.316228 µM	-2.49
1 µM	-2.95
3.16228 µM	-2.64
10 µM	-3.81
31.6228 µM	-2.28
100 µM	0.11

CC(C=CC1=C(C)CCCC1(C)C)=CC=CC(C)=CC(=O)O [all-trans-Retinoic acid]
Conditions	LDH release cytotoxicity [%]
0.03162 µM	-2.15
0.1 µM	-2.16
0.3162278 µM	-1.95
1 µM	-2.25
3.16228 µM	-2.56
10 µM	-1.87
31.6228 µM	-1.86
100 µM	2.13

O=C(Nc1ccc(Cl)cc1)Nc1ccc(Cl)c(Cl)c1 [Triclocarban]
Conditions	LDH release cytotoxicity [%]
0.03162 µM	-2.18
0.1 µM	-1.67
0.3162278 µM	-1.81
1 µM	-1.44
3.16228 µM	-1.83
10 µM	-0.606
31.6228 µM	-1.24
100 µM	0.167

CN(C)C(=O)Nc1cccc(C(F)(F)F)c1 [Fluometuron]
Conditions	LDH release cytotoxicity [%]
0.03162 µM	-0.415
0.1 µM	-0.308
0.3162278 µM	-0.631
1 µM	-0.564
3.16228 µM	-0.69
10 µM	0.366
31.6228 µM	-0.569
100 µM	0.377

O=[N+]([O-])c1ccc(Cl)cc1 [1-Chloro-4-nitrobenzene]
Conditions	LDH release cytotoxicity [%]
0.03162 µM	-0.012
0.1 µM	-0.728
0.3162278 µM	0.037
1 µM	-0.523
3.16228 µM	-0.0534
10 µM	0.685
31.6228 µM	5.08
100 µM	18

O=C(NO)C1(NS(=O)(=O)c2ccc(Oc3ccc(F)cc3)cc2)CCOCC1
Conditions	LDH release cytotoxicity [%]
0.03162 µM	0.225
0.1 µM	-0.912
0.3162278 µM	-0.649
1 µM	-0.54
3.16228 µM	-0.318
10 µM	-0.00829
31.6228 µM	-1.25
100 µM	10.5

CCCCCCCCC=CCCCCCCCC(=O)OCC(O)C1OCC(O)C1O (stereo unspecified) [Sorbitan, mono-(9Z)-9-octadecenoate]
Conditions	LDH release cytotoxicity [%]
0.03162 µM	-0.746
0.1 µM	-0.105
0.3162278 µM	-1.38
1 µM	-1.65
3.16228 µM	-1.48
10 µM	-1.08
31.6228 µM	-0.835
100 µM	-0.317

Nc1c(Cl)c(F)nc(OCC(=O)O)c1Cl [Fluroxypyr]
Conditions	LDH release cytotoxicity [%]
0.03162 µM	-0.285
0.1 µM	-1.46
0.3162278 µM	-1.77
1 µM	-1.29
3.16228 µM	-1.07
10 µM	-0.274
31.6228 µM	0.368
100 µM	1.75

CCCC(CCC)C(=O)O [Valproic acid]
Conditions	LDH release cytotoxicity [%]
0.031623 µM	-0.788
0.1 µM	-2.27
0.316228 µM	-1.27
1 µM	-2.73
3.16228 µM	-1.85
10 µM	-2.14
31.6228 µM	-1.38
100 µM	-0.176

CC(=O)C1(O)CCC2C3CCC4=CC(=O)CCC4(C)C3CCC21C (stereo not drawn) [17alpha-Hydroxyprogesterone]
Conditions	LDH release cytotoxicity [%]
0.03162 µM	-0.419
0.1 µM	-1.4
0.3162278 µM	-2.18
1 µM	-1.25
3.16228 µM	-0.766
10 µM	0.609
31.6228 µM	-0.397
100 µM	0.684

CC(C)CCCCCCOC(=O)CCCCC(=O)OCCCCCCC(C)C [Hexanedioic acid, diisononyl ester]
Conditions	LDH release cytotoxicity [%]
0.03162 µM	-1.22
0.1 µM	-0.123
0.3162278 µM	0.647
1 µM	-0.997
3.16228 µM	0.19
10 µM	0.0398
31.6228 µM	0.663
100 µM	0.377

CCCCOCCOCCO [2-(2-Butoxyethoxy)ethanol]
Conditions	LDH release cytotoxicity [%]
0.03162 µM	-0.987
0.1 µM	-1.94
0.3162278 µM	-1.79
1 µM	-2.09
3.16228 µM	-2.29
10 µM	-1.67
31.6228 µM	-1.25
100 µM	-0.813

COc1cc(C(C)C)c2c(c1)S(=O)(=O)N(COc1cc(=O)n3cccc(OCCN4CCCCC4)c3n1)C2=O
Conditions	LDH release cytotoxicity [%]
0.0079057 µM	0.0307
0.025 µM	0.0794
0.0790569 µM	0.357
0.25 µM	-0.592
0.790569 µM	-0.444
2.5 µM	-0.335
7.90569 µM	-0.231
25 µM	14.2

CC(C)NCC(O)c1ccc(O)c(O)c1 (stereo unspecified) [Isoproterenol hydrochloride]
Conditions	LDH release cytotoxicity [%]
0.03162 µM	-1.33
0.1 µM	-0.922
0.3162278 µM	0.959
1 µM	2.34
3.16228 µM	2.16
10 µM	-0.0702
31.6228 µM	-1.75
100 µM	-1.61

C=C(C)C(=O)[O][Sn]([CH2]CCC)([CH2]CCC)[CH2]CCC [Tributyltin methacrylate]
Conditions	LDH release cytotoxicity [%]
0.03162 µM	-1.27
0.1 µM	-1.27
0.3162278 µM	-0.912
1 µM	-1.5
3.16228 µM	37.9
10 µM	56.38
31.6228 µM	55.58
100 µM	59.2

CCCCC=O [Pentanal]
Conditions	LDH release cytotoxicity [%]
0.031623 µM	0.98
0.1 µM	-1.98
0.316228 µM	-0.995
1 µM	-1.67
3.16228 µM	-1.94
10 µM	-1.12
31.6228 µM	-1.6
100 µM	0.803

COS(=O)(=O)OC [Dimethyl sulfate]
Conditions	LDH release cytotoxicity [%]
0.03162 µM	-0.536
0.1 µM	-0.931
0.3162278 µM	-1.52
1 µM	-1.6
3.16228 µM	-1.18
10 µM	-0.291
31.6228 µM	-1.17
100 µM	3.53

COc1ccc(-n2nc(C(F)F)cc2-c2ccc(S(C)=O)cc2)cc1 (stereo unspecified) [Difpas-pyrazole]
Conditions	LDH release cytotoxicity [%]
0.03162 µM	-0.159
0.1 µM	-0.696
0.3162278 µM	-0.216
1 µM	-0.962
3.16228 µM	0.006
10 µM	0.216
31.6228 µM	0.847
100 µM	78.66

O=C(O)Cc1ccccc1Nc1c(Cl)cccc1Cl [Diclofenac sodium]
Conditions	LDH release cytotoxicity [%]
0.03162 µM	0.371
0.1 µM	-0.605
0.3162278 µM	-1.36
1 µM	-0.678
3.16228 µM	-0.378
10 µM	-0.578
31.6228 µM	1.19
100 µM	12

CC(C)=CC1C(C(=O)OCN2C(=O)C3=C(CCCC3)C2=O)C1(C)C (stereo unspecified) [Tetramethrin]
Conditions	LDH release cytotoxicity [%]
0.03162 µM	-1.77
0.1 µM	-1.73
0.3162278 µM	-2
1 µM	-2.13
3.16228 µM	-1.65
10 µM	-1.51
31.6228 µM	-0.61
100 µM	0.736

CC(C)(c1cc(Br)c(O)c(Br)c1)c1cc(Br)c(O)c(Br)c1 [3,3',5,5'-Tetrabromobisphenol A]
Conditions	LDH release cytotoxicity [%]
0.03162 µM	-1.12
0.1 µM	-1.08
0.3162278 µM	-0.948
1 µM	-1.1
3.16228 µM	-0.766
10 µM	-0.155
31.6228 µM	0.933
100 µM	3.36
